Assay [1] concerns the target human KHK-C (Homo sapiens (Human), UniProt P50053). The assay is described as follows: KHK Biochemical Assay (IC50), ADP-Glo, KHK-C. To be noted: average of at least two separate assays. The method in brief: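 His-tagged enzyme expressed in BL21 (DE3), Ni-NTA purified. Compounds, serially diluted 1:3 in DMSO, pre-incubated 30 min with enzyme in 50 mM Hepes pH 7.4, 140 mM KCl, 5 mM MgCl2, 0.01% Triton-X, then ATP and fructose added; 4 h at room temperature. ADP formation read by ADP-Glo luminescence.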

The target in assay [2] is KHK-C expressed in NRK-52E cells (Homo sapiens (Human), UniProt P50053). The assay is described as follows: KHK-C Cell-based Assay (EC50), NRK CTG, fructose-mediated ATP-depletion.
KHK-C expressed in NRK-52E cells, sequence (P50053 whole entry): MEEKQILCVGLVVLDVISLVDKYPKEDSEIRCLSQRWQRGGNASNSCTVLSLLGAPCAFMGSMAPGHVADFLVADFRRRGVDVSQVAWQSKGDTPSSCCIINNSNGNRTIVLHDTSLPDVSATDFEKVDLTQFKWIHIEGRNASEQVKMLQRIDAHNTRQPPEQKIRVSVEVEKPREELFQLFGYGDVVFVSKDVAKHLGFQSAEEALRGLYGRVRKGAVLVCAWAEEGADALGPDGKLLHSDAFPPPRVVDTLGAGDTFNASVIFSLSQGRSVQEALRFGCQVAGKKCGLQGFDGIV

pEC50, pIC50: −log10 of the molar value.

human KHK-C, sequence (P50053 whole entry): as above

Regarding `CC(C)C[C@H]1C(F)CN1c1nc2c(c(-c3ccc(C(N)=O)cc3)n1)CCC2` (stereo partly drawn) [Example 437, 4-[2-[(2S)-3-fluoro-2-isobutyl-azetidin-1-yl]-6,7-dihydro-5H-cyclopenta[d]pyrimidin-4-yl]benzamide], the pIC50 in assay [1] was < 5.30. For the same compound, in assay [2], the pEC50 is < 5.30.

Regarding `C[C@@H](OCc1ccccc1)[C@H]1C(O)CN1c1nc2c(c(-c3ccc(C(N)=O)cc3)n1)CCC2` (stereo partly drawn) [Example 438, 4-[2-[(2R)-2-[(1R)-1-benzyloxyethyl]-3-hydroxy-azetidin-1-yl]-6,7-dihydro-5H-cyclopenta[d]pyrimidin-4-yl]benzamide], in assay [1], the pIC50 was < 5.30. For the same compound, the pEC50 in assay [2] was < 5.30.

Compound `NC(=O)c1ccc(-c2nc(N3CC[C@@H]3C(=O)O)nc3c2CCC3)cc1` [Example 442, (2R)-1-[4-(4-carbamoylphenyl)-6,7-dihydro-5H-cyclopenta[d]pyrimidin-2-yl]azetidine-2-carboxylic acid] showed a pIC50 in assay [1] of 5.80. Moreover, the negative-log EC50 (pEC50) in assay [2] is 5.56.

`C[C@H]1CCN1c1nc2c(c(-c3cc(Cl)cc([C@H]4C[C@@H]4C(=O)O)c3)n1)CCC2` [Example 443, (1S,2S)-2-[3-chloro-5-[2-[(2S)-2-methylazetidin-1-yl]-6,7-dihydro-5H-cyclopenta[d]pyrimidin-4-yl]phenyl]cyclopropanecarboxylic acid] gave a pIC50 in assay [1] of 8.38. In addition, the pEC50 in assay [2] was 7.27.

As to `C[C@H]1[C@H](O)CN1c1nc2c(c(-c3ccc(C(N)=O)cc3)n1)CC(F)(F)CC2` [Example 444, 4-(6,6-difluoro-2-((2S,3R)-3-hydroxy-2-methylazetidin-1-yl)-5,6,7,8-tetrahydroquinazolin-4-yl)benzamide], the pIC50 in assay [1] is < 5.30. For the same compound, the pEC50 in assay [2] was < 5.30.

In assay [1], `CS(=O)(=O)NC[C@H]1CCN1c1nc2c(c(-c3ccc(C(N)=O)cc3)n1)CCC2` [Example 457, 4-[2-[(2R)-2-(methanesulfonamidomethyl)azetidin-1-yl]-6,7-dihydro-5H-cyclopenta[d]pyrimidin-4-yl]benzamide] had a pIC50 of 6.02. For the same compound, in assay [2], the pEC50 was < 5.30.

In assay [1], `C[C@H]1[C@H](O)CN1c1nc(-c2ccc3c(c2)OCCNS3(=O)=O)c2c(n1)C(F)(F)CC2` [Example 500] gave a pIC50 of 7.31. The compound also showed a negative-log EC50 (pEC50) in assay [2] of 6.62.

In assay [1], `CC1CCC1c1nc2c(c(-c3ccc(C(N)=O)cc3)n1)CCC2` (stereo not shown) [Example 501, 4-(2-(2-methylcyclobutyl)-6,7-dihydro-5H-cyclopenta[d]pyrimidin-4-yl)benzamide] gave a pIC50 of 6.67. Further, the pEC50 in assay [2] is 6.22.

In turn, `CC1(c2nc3c(c(-c4ccc(C(N)=O)cc4)n2)CCC3)CCC1` [Example 502, 4-(2-(1-methylcyclobutyl)-6,7-dihydro-5H-cyclopenta[d]pyrimidin-4-yl)benzamide] had a pIC50 in assay [1] of 6.11. In assay [2], this compound gave a pEC50 of 5.70.

For the compound `C[C@H]1[C@H](O)CN1c1nc(-c2ccc(C3(N)COC3)c(F)c2)c2c(n1)C(F)(F)CC2` [Example 503, (2S,3R)-1-(4-(4-(3-aminooxetan-3-yl)-3-fluorophenyl)-7,7-difluoro-6,7-dihydro-5H-cyclopenta[d]pyrimidin-2-yl)-2-methylazetidin-3-ol], in assay [1], the pIC50 was 8.30. In assay [2], this compound gave a negative logarithm of the EC50 (pEC50) of 7.57.

In turn, `Cc1cc(-c2nc(N3C[C@@H](O)[C@@H]3C)nc3c2CCC3(F)F)ccc1C1(N)COC1` [Example 505, (2S,3R)-1-(4-(4-(3-aminooxetan-3-yl)-3-methylphenyl)-7,7-difluoro-6,7-dihydro-5H-cyclopenta[d]pyrimidin-2-yl)-2-methylazetidin-3-ol] showed a pIC50 in assay [1] of 8.62. The same compound showed a pEC50 in assay [2] of 7.92.

On to `C[C@H]1[C@H](O)CN1c1nc(-c2ccc(C3(N)COC3)nc2)c2c(n1)C(F)(F)CC2` [Example 506, (2S,3R)-1-(4-(6-(3-aminooxetan-3-yl)pyridin-3-yl)-7,7-difluoro-6,7-dihydro-5H-cyclopenta[d]pyrimidin-2-yl)-2-methylazetidin-3-ol], for which the pIC50 in assay [1] was < 5.30. Besides, the pEC50 in assay [2] was < 5.30.

Compound `C[C@H]1[C@H](O)CN1c1nc(-c2ccc3c(c2)C(=O)N(C)CC3)c2c(n1)C(F)(F)CC2` [Example 600, 7-(7,7-difluoro-2-((2S,3R)-3-hydroxy-2-methylazetidin-1-yl)-6,7-dihydro-5H-cyclopenta[d]pyrimidin-4-yl)-2-methyl-3,4-dihydroisoquinolin-1(2H)-one] showed a pIC50 in assay [1] of 7.87. The negative-log EC50 (pEC50) in assay [2] is 6.90.

`C[C@H]1[C@H](O)CN1c1nc2c(c(-c3ccc4c(c3)S(=O)(=O)CNC4=O)n1)CCC2` [Example 601, 7-(2-((2S,3R)-3-hydroxy-2-methylazetidin-1-yl)-6,7-dihydro-5H-cyclopenta[d]pyrimidin-4-yl)-2,3-dihydro-4H-benzo[e][1,3]thiazin-4-one 1,1-dioxide] gave a pIC50 in assay [1] of 7.02. The pEC50 in assay [2] is < 5.30.

For the compound `C[C@H]1CCN1c1nc2c(c(-c3ccc4c(c3)CN(S(=O)(=O)CCO)CC4)n1)CCC2` [Example 605], the pIC50 in assay [1] was 7.01. In addition, the pEC50 in assay [2] is 6.82.

The compound `C[C@H]1[C@H](O)CN1c1nc2c(c(-c3cccc(CNS(=O)(=O)C4CC4)c3)n1)CCC2` [Example 610] gave a pIC50 in assay [1] of 7.09. In addition, the pEC50 in assay [2] is 6.21.

`C[C@H]1[C@H](O)CN1c1nc(-c2ccc3c(c2)CN(S(C)(=O)=O)CC3)c2c(n1)C(F)(F)CC2` [Example 611, (2S,3R)-1-(7,7-difluoro-4-(2-(methylsulfonyl)-1,2,3,4-tetrahydroisoquinolin-7-yl)-6,7-dihydro-5H-cyclopenta[d]pyrimidin-2-yl)-2-methylazetidin-3-ol]: in assay [1], the pIC50 is 7.49. The compound further had a pEC50 in assay [2] of 7.04.

For the compound `CN1C(=O)N[C@]2(CCc3cc(-c4nc(N5CC[C@@H]5CF)nc5c4CCC5(F)F)ccc32)C1=O` [Example 676, (5S)-5′-[7,7-difluoro-2-[(2R)-2-(fluoromethyl)azetidin-1-yl]-5,6-dihydroeyelopenta[d]pyrimidin-4-yl]-3-methyl-spiro[imidazolidine-5,1′-indane]-2,4-dione], in assay [1], the pIC50 was 9.70. This compound also gave a pEC50 in assay [2] of 8.92.

As for `CCN1C(=O)N[C@]2(CCc3cc(-c4nc(N5C[C@@H](O)[C@@H]5C)nc5c4CCC5(F)F)ccc32)C1=O` [Example 685, (58)-5′-[7,7-difluoro-2-[(2S,3R)-3-hydroxy-2-methyl-azetidin-1-yl]-5,6-dihydrocyclopenta[d]pyrimidin-4-yl]-3-ethyl-spiro[imidazolidine-5,1′-indane]-2,4-dione], the negative logarithm of the IC50 (pIC50) in assay [1] was 9.70. The pEC50 in assay [2] is 8.68.

The compound `C[C@H]1CCN1c1nc2c(c(-c3cn(C4COC4)nn3)n1)CCC2` [Example 704, 2-[(2S)-2-methylazetidin-1-yl]-4-[1-(oxetan-3-yl)triazol-4-yl]-6,7-dihydro-5H-cyclopenta[d]pyrimidine] gave a pIC50 in assay [1] of 6.60. The compound further had a negative logarithm of the EC50 (pEC50) in assay [2] of 5.88.

In assay [1], `N#CC1CCN1c1nc(-c2ccc(C(N)=O)cc2)c2c(n1)C(F)(F)CC2` (stereo not shown) [Example 706, 4-(2-(2-cyanoazetidin-1-yl)-7,7-difluoro-6,7-dihydro-5H-cyclopenta[d]pyrimidin-4-yl)benzamide] had a pIC50 of 7.17. In addition, the pEC50 in assay [2] was 6.44.

For the compound `N#C[C@H]1CCN1c1nc(-c2ccc(C(N)=O)cc2)c2c(n1)C(F)(F)CC2` [Example 707, (R)-4-(2-(2-cyanoazetidin-1-yl)-7,7-difluoro-6,7-dihydro-5H-cyclopenta[d]pyrimidin-4-yl)benzamide], the pIC50 in assay [1] is 7.36. The compound also had a negative-log EC50 (pEC50) in assay [2] of 6.48.

Regarding `N#CC1CN(c2nc(-c3ccc(C(N)=O)cc3)c3c(n2)C(F)(F)CC3)C1` [Example 708, 4-(2-(3-cyanoazetidin-1-yl)-7,7-difluoro-6,7-dihydro-5H-cyclopenta[d]pyrimidin-4-yl)benzamide], the pIC50 in assay [1] is < 5.30. Also, the pEC50 in assay [2] was < 5.30.

For the compound `CS(=O)(=O)c1cccc(-c2nc(N3CCC[C@H]3C#N)nc3c2CCC3)c1` [Example 712, (S)-1-(4-(3-(methylsulfonyl)phenyl)-6,7-dihydro-5H-cyclopenta[d]pyrimidin-2-yl)pyrrolidine-2-carbonitrile], in assay [1], the pIC50 was < 5.30. Moreover, the pEC50 in assay [2] is < 5.30.

For `CS(=O)(=O)c1cccc(-c2nc(N3CCC[C@@H]3C#N)nc3c2CCC3)c1` [Example 713, (R)-1-(4-(3-(methylsulfonyl)phenyl)-6,7-dihydro-5H-cyclopenta[d]pyrimidin-2-yl)pyrrolidine-2-carbonitrile], the pIC50 in assay [1] was 5.63. Also, the negative-log EC50 (pEC50) in assay [2] is 5.31.

With `CC1(C#N)CCN1c1nc2c(c(-c3cccc(S(C)(=O)=O)c3)n1)CCC2` (stereo not shown) [Example 714, 2-methyl-1-(4-(3-(methylsulfonyl)phenyl)-6,7-dihydro-5H-cyclopenta[d]pyrimidin-2-yl)azetidine-2-carbonitrile], the pIC50 in assay [1] was < 5.30. For the same compound, in assay [2], the pEC50 is < 5.30.

For `C[C@H]1CCN1c1nc2c(c(-c3ccc4nc(N)oc4c3)n1)CCC2` [Example 728, (S)-6-(2-(2-methylazetidin-1-yl)-6,7-dihydro-5H-cyclopenta[d]pyrimidin-4-yl)benzo[d]oxazol-2-amine], the pIC50 in assay [1] is 7.65. Moreover, the pEC50 in assay [2] is 7.28.

In assay [1], `NC(=O)c1ccc(-c2nc(N3CCC34COC4)nc3c2CCC3)cc1` [Example 730, 4-(2-(6-oxa-1-azaspiro[3.3]heptan-1-yl)-6,7-dihydro-5H-cyclopenta[d]pyrimidin-4-yl)benzamide] had a pIC50 of 5.62. Also, the pEC50 in assay [2] was 5.30.

In assay [1], `C[C@H]1CCN1c1nc2c(c(-c3ccc4[nH]c(N)nc4c3)n1)CCC2` [Example 731, (S)-5-(2-(2-methylazetidin-1-yl)-6,7-dihydro-5H-cyclopenta[d]pyrimidin-4-yl)-1H-benzo[d]imidazol-2-amine] gave a pIC50 of 8.28. This compound showed a pEC50 in assay [2] of 6.60.

These data come from patent US12410160B2 (Gilead Sciences, Inc., priority 2021, dated 2025).
